# Experimental data: patent US8809010B2, “Method for prophylactic treatment of alzheimer's disease using inhibitors of glutaminyl cyclase and glutamate cyclases” (Probiodrug AG, priority 2003, dated 2014)
# What was measured:
# [1] = test system: pGlu-Aβ(3-42) formation in HEK293 and β-TC3 cells; test: pGlu-Aβ formation in cell culture (APP or mTRH-Aβ constructs), ELISA of medium; assay type: cell-based
# Protocol: Aβ(x-42) shall here relate to all N-terminal Aβ or truncated Aβ forms.
# In the accompanying approach, plasmids encoding variants of human APP were transfected into HEK293 cells (FIG. 24-2). The processing by β- and γ-secretase yields high amounts of Aβ(3-40/42), which can be detected in the culture medium.
# For analysis of Aβ in case of the cell culture studies, conditioned medium was diluted using EIA buffer (IBL, Hamburg) as before and diluted samples were subjected to ELISA analysis.
# [2] = test system: pGlu-Aβ(3-40) formation in rat cortex; test: Rat model, intracortical injection of Aβ peptides (traumatic brain injury), ELISA and immunohistochemistry; assay type: in vivo
# Protocol: Aβ(x-40), Aβ(x-42) and Aβ (N3pE-42)-specific sandwich ELISAs (all from IBL, Hamburg) were performed according to the manufacturer's manual. Briefly, samples were diluted according to the expected concentration in the brain parts and applied onto a plate precoated with an antibody specific for the respective C-terminus. The samples were incubated overnight. The next day, the plate was washed 8 times and incubated for 1 h with a horse radish peroxidase conjugated detection antibody afterwards. Following this incubation the plate was washed 10 times and then developed with chromogen (TMB) for 30 min. After applying the stop solution the absorption at 450 nm was measured using a microplate reader (TECAN Sunrise). For preparation of standard curves the respective synthetic peptides supplied with the ELISA kits were used.
# Samples for ELISA were prepared from 8 animals per group (total 32 animals). After removal of the brain, the tissue were flushed shortly with ice cold saline and placed shortly on filter paper. The cerebellum were prepared from each brain and stored separately. The brains were weighed and frozen in liquid nitrogen in 2 ml Cryo-tubes and stored at −80° C. until analysis.
# For sequential separation of Aβ the following procedures were used: […]
# THP-1 monocytes = test: TransWell chemotaxis assay; assay type: cell-based, human; settings: 10 μM inhibitor, dilutions 1:3 and 1:10
# Protocol: The chemotaxis assay was performed using 24 well TransWell plates with a pore size of 5 μm (Corning). Media, containing human MCP-1 variants expressed in HEK293, were used as chemoattractant. To this avail, 600 μl of the culture media of N-terminal human MCP-1 variants was applied directly or in dilutions 1:3, 1:10 and 1:30 in RPMI1640 to the lower chamber of the TransWell plate. Furthermore, undiluted media of HEK293 cells transfected with vector control were applied as negative control to the lower chamber. THP-1 cells were harvested and resuspended in RPMI1640 in a concentration of 1*10^6 cells/100 μl and applied in 100 μl aliquots to the upper chamber. Cells were allowed to migrate towards the chemoattractant for 2 h at 37° C. Subsequently, cells from the upper chamber were discarded and the lower chamber was mixed with 70 mM EDTA in PBS and incubated for 15 min at 37° C. to release cells attached to the membrane. Afterwards, cells migrated to the lower chamber were counted using a cell counter system (Schärfe System). The chemotactic index was calculated by dividing cells migrated to the stimulus from cells migrated to the negative control.
# [3] = test system: cuffed femoral artery: vascular remodeling, monocyte adhesion, MCP-1 expression; test: Cuff-induced accelerated atherosclerosis in ApoE3*Leiden mice; assay type: in vivo; parameters: reduction of percentage of lumen stenosis / reduction of the area of neointima formation / reduction of total adhering cells / reduction of adhering monocytes / reduction of MCP-1 expression, absolute area, media / reduction of MCP-1 expression, absolute area, intima: concentration or dose not given beside the values
# Protocol: After 3 weeks the mice underwent surgical non-constricting cuff placement (day 0) and were divided into 2 groups, matched for plasma cholesterol levels.
# At the time of surgery, mice were anaesthetized with an intraperitoneal injection of 5 mg/kg Dormicum, 0.5 mg/kg Domitor and 0.05 mg/kg Fentanyl. This cocktail gives complete narcosis for at least one hour and can be quickly antagonized with Antisedan 2.5 mg/kg and Anexate 0.5 mg/kg.
# A longitudinal 1 cm incision is made in the internal side of the leg and the femoral artery is dissected for 3 mm length from the femoral nerve and femoral vein. The femoral artery is looped with a ligature and a non-constrictive fine bore polyethylene tubing (0.4 mm inner diameter, 0.8 mm outer diameter, length 2 mm) is longitudinally opened and sleeved loosely around the femoral artery. The cuff is closed up with two ligature knots. The skin is closed with a continued suture.
# For histological analysis, animals were sacrificed either 2 days or 14 days after cuff placement. […] After perfusion, a longitudinal 2 cm incision was made in the internal side of the leg and the cuffed femoral artery was harvested as a whole and fixed overnight in 4% formaldehyde and processed to paraffin.
# Adhesion of leukocytes in general and monocytes/macrophages in particular to the activated endothelium of the cuffed vessel wall was analyzed by microscopic analysis of cross sections harvested 2 days after cuff placement. The number of adhering and/or infiltrating leukocytes in general, identified as adhering cells at the luminal side of the vessel segment, and monocytes/macrophages in particular was counted and illustrated as cells per cross-section or as defined areas per cross section. Monocytes were identified by specific immunohistochemical staining by AIA31240 antibody, recognizing monocytes and macrophages.
# Vessel wall remodeling accelerated atherosclerosis and neoinitima formation were analyzed morphometrically in all mice sacrificed after 14 days. A full comparison between the two groups was performed for all relevant vessel wall parameters (neointima formation, vascular circumference (i.e. outward remodelling), media thickness, lumen stenosis). Accelerated atherosclerosis was analyzed by immunohistochemical staining for macrophages and foam cells in the lesion area by AIA31240 antibody.
# Plasma half-life = assay type: in vivo; settings: rat
# [4] = test system: human MCP-1 concentration, HEK293 cells; test: Expression of human MCP-1 in HEK293 cells, MCP-1 ELISA of supernatant; assay type: cell-based; settings: 10 μM inhibitor
# Protocol: For expression of N-terminal variants of human MCP-1, HEK293 cells were cultured in collagen I coated 6-well dishes and grown until 80% confluency, transfected using Lipofectamin2000 (Invitrogen) according to manufacturer's manual and incubated in the transfection solution for 5 hours. Afterwards, cells were allowed to recover in normal growth media over night. The next day, cells were incubated another 24 h in growth media. When application of QC specific inhibitor […] was intended, cells were incubated for 24 h in absence or presence of 10 μM […]. […] Furthermore, an aliquot of cell culture supernatant was stored at −80° C. for quantification of human MCP-1 concentration using human MCP-1-ELISA (Pierce).
# HEK293 cells = test: Aβ in conditioned medium after transient APP expression, BACE I inhibition, ELISA; assay type: cell-based, human
# Protocol: (§1) The constructs are depicted in FIG. 33. The APP-encoding plasmids differed with respect to the sequence surrounding the β-secretase cleavage site, i.e. either carried the swedish mutation (KM595/596NL) or the wild-type sequence (K595M596) at the β-secretase-cleavage site. Furthermore, the constructs encoded either the London (V642I) or wild-type sequence (V642) near the γ-secretase cleavage site. The swedish mutation leads to an elevated generation of Aβ due to enhanced cleavage by the β-secretase BACE I. The London mutation mediates enhanced formation of Aβ42 peptides compared to the wild-type sequence without affecting the total Aβ generation.
# (§2) In order to substantiate the role of these newly discovered enzyme activity generating the molecular precursor of pGlu-Aβ peptides, inhibitors of the known β-secretase BACE I were employed in experiments based on transient expression of the plasmid constructs outlined in FIG. 33. Similar to the observations with the APP(N3Q) constructs, N-terminally truncated peptides were generated mainly after APP-WT and APP-London expression.
# (§3) Aβ(x-40), Aβ(x-42) and Aβ (N3pE-42)-specific sandwich ELISAs (all from IBL, Hamburg) were performed according to the manufacturer's manual. […] After applying the stop solution the absorption at 450 nm was measured using a microplate reader (TECAN Sunrise). […]
# LNZ-308 cells = test: as above; assay type: cell-based
# Protocol: as §1, §2, §3
Compound,pGlu-Aβ concentration in medium ([1]; HEK293 and β-TC3 settings),total Aβ concentration in medium ([1]; indicator of cell viability),pGlu-Aβ immunostaining ([2]; injected prior to Aβ(3-40)),"pGlu-Aβ after injection of Aβ(1-40) ([2]; rat, in vivo)",chemotaxis of THP-1 cells towards MCP-1 (WT) supernatant (THP-1 monocytes),"reduction of MCP-1 expression, absolute area, intima ([3]; 2 days) [%]","reduction of MCP-1 expression, absolute area, media ([3]; 2 days) [%]",reduction of adhering monocytes ([3]; 2 days) [%],reduction of total adhering cells ([3]; 2 days) [%],MCP-1 expression in media or neointima ([3]; 14 days),area of the media ([3]; 14 days),reduction of percentage of lumen stenosis ([3]; 14 days) [%],reduction of the area of neointima formation ([3]; 14 days) [%],remaining lumen ([3]; 14 days),half-life (Plasma half-life) [h],level of MCP-1 (WT) in supernatant [4],Aβ(1-40) and Aβ(1-42) (HEK293 cells),total Aβ40-concentration (HEK293 cells; HEK293 cells),total Aβ lowering (LNZ-308 cells)
"COc1ccc(NC(=S)NCCCn2ccnc2)cc1OC.Cl [1-(3-(1H-imidazol-1-yl)propyl)-3-(3,4-dimethoxyphenyl)thiourea hydrochloride]",significantly reduced,not reduced,significant reduction in pGlu-Aβ immunostaining,did not result in a clear reduction of pGlu-Aβ,significantly lower chemotaxis,40,41,67,45,no reduction of MCP-1 expression,reduced,40,45,no statistically significant effect,< 1,not significantly changed,–,–,–
C[C@@H](NC(=O)c1cc(C(=O)N[C@@H](Cc2ccccc2)[C@H](O)CNC2CC2)cc(N(C)S(C)(=O)=O)c1)c1ccccc1 [BACE IV],–,–,–,–,–,–,–,–,–,–,–,–,–,–,–,–,reduced the N-terminally intact Aβ-peptides,did not influence the total Aβ40-concentration significantly,only marginal efficacy
